The values that follow come from US7094798B1, “Inhibitors of checkpoint kinases (Wee1 and Chk1)” (Pfizer Inc, priority 2002, dated 2006).

Experiment [1] concerns the target T1, PKC contained in a rat brain preparation.
T1 construct: Enzyme was prepared from a preparation of rat brain (Promega) 0.5 μg diluted with 1.6 ml of 10 mM Hepes buffer pH 7.5
In words: Protein Kinase C (PKC) assay. It counts as biochemical. The conditions noted are these: histone H1 substrate. Here is the method:
The PKC assay provides a measure of inhibitory activity of the test compounds against PKC contained in a rat brain preparation.
Enzyme was prepared from a preparation of rat brain (Promega) 0.5 μg diluted with 1.6 ml of 10 mM Hepes buffer pH 7.5. Reaction buffer was comprised of 150 mM Hepes buffer, 4 mM CaCl2, 15 mM MgCl2, 3 mM EDTA, 3.75 mM EGTA at pH 7.5. Histone substrate was made by dissolving histone H1 (Sigma) in water at 1.5 mg/ml. Phosphatidylserine/diolein liposomes were made by mixing 75 μl of 10 mg/ml phosphatidylserine (Sigma) in CHCl3 with 60 μl of 2.5 mg/ml diolein in CHCl3 (Sigma) in a glass vial and evaporating the CHCl3 under N2. The film was suspended in 1 ml water and sonicated 6×15 sec with a microtip probe at room temperature.
To carry out the assay, 50 μl buffer, 20 μl histone, 20 μl liposomes, and inhibitor or solvent control were added to wells of a 96-well filter plate (Millipore) with enough water, if necessary, to make the final volume 110 μl. 20 μl of enzyme preparation solution were added and incubated for 10 minutes at room temperature. This was followed by the addition of 20 μl of ^32P ATP (75 μM ATP in water, labeled ATP at 25 μCi/ml) which was incubated for 15 minutes at room temperature. The reaction was terminated by the addition of 50 μl of 40% (w/v) trichloroacetic acid. The filters were washed by vacuum filtration with 5×125 μl of ice cold 10% (w/v) trichloroacetic acid. The filters were placed in scintillation fluor and counted to determine precipitated labeled phosphate incorporated into substrate. The percent inhibition was calculated in comparison to the uninhibited controls.

The target of experiment [2] is T2, human Wee1 kinase aa215-647 (Homo sapiens, UniProt P30291).
T2 construct: human Wee1 kinase aa215-647; purchased Onyx Pharmaceuticals; host or cells: baculovirus protein expression system
T2 sequence (P30291 215-646 limits assumed): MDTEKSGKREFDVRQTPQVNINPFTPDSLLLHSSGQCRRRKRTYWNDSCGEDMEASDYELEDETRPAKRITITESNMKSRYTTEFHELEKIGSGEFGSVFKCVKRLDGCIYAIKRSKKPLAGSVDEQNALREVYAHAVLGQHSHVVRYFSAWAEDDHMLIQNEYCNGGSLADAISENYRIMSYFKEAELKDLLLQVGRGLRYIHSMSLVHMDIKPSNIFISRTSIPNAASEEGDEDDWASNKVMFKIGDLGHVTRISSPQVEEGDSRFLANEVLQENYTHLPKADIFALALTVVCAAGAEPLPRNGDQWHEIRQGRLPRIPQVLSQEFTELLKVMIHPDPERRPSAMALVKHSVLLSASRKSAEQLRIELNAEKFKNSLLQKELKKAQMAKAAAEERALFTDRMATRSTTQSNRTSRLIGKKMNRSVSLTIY
The experiment is described as follows: Wee1 inhibition filter binding assay (OY). The conditions noted are these: isolated Wee1 kinase, Poly Ornithine:Tyrosine (4:1) substrate; read-out: WEE1OY IC50. It counts as biochemical.
Method: This assay provides a measure of inhibitory ability of the test compounds against isolated Wee1 kinase.
The Wee1 kinase assay measures enzyme mediated phosphorylation of tyrosine on a synthetic peptide substrate in the presence of compounds being tested. […] Compounds were dissolved and diluted in DMSO, 10 μl 3×EDB buffer (150 mM Tris, pH 8.0, 30 mM NaCl, 30 mM MgCl2, 3 mM DTT), 18 μl water, and 2 μl of drug dilution were added to the test wells and mixed thoroughly, 10 μl of enzyme-substrate mixture was added to the wells. […] The plates were mixed thoroughly for 5 minutes at room temperature. […] The reaction was stopped by adding 50 μl of ice cold 20% TCA with 0.1 M tetrasodium pyro-phosphate. Plates were incubated on ice or refrigerated at 4° C. for 1 hour. Liquid reaction mixture was removed on a vacuum manifold, and the precipitated phosphorylated substrate was rinsed 5 times with 200 μl ice cold 10% TCA with 0.1 M tetrasodium pyrophosphate. 25 μl liquid scintillation cocktail were added to the membrane bound substrate and the plate read in a Microbeta (Perkin-Elmer) plate reader. Activity of compounds was calculated in comparison to uninhibited control determinations in each assay.

Experiment [3] deals with T3, Chk1 enzyme (Homo sapiens, UniProt O14757).
T3 construct: purchased Onyx Pharmaceuticals
T3 sequence (O14757 1-476): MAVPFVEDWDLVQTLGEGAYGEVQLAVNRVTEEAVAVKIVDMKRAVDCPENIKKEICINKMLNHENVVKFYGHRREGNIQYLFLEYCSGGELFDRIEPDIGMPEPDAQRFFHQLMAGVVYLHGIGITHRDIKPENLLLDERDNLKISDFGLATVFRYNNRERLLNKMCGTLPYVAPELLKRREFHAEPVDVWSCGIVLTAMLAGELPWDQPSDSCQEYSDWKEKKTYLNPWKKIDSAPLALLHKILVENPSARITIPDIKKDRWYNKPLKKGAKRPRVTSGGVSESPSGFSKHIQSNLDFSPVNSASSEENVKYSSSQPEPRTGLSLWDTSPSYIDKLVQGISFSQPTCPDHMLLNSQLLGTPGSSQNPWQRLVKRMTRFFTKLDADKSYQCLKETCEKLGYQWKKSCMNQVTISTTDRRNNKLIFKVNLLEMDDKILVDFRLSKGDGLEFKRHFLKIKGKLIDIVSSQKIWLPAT
In words: Chk1 enzyme inhibition assay. The class given is biochemical. Particulars: isolated Chk1 enzyme, GST-Cdc25 substrate; read-out: CHK1A IC50.
Method: The assay was carried out in round bottom polypropylene 96-well plates (Costar). Compounds were tested in serial dilutions beginning with a high concentration of 50 μM followed by up to nine 3-fold dilutions. Compounds were dissolved and diluted in DMSO. 2 μl of drug were spotted on the bottom of the assay plates, then diluted with 58 μl of Chk1 buffer (20 mM Tris, pH 8.0, 50 mM NaCl, 10% Glycerol, 10 mM MgCl2, 5 mM dithiothreitol), and mixed at room temperature for 1 minute. […] Contents of the wells were mixed for 1 minute and incubated at room temperature for 10 minutes. […] The contents were mixed for 1 minute and incubated at 30° C. for 30 minutes. The reaction was stopped by adding 50 μl of 120 mM EDTA to each well, except the control wells already containing EDTA. 140 μl of the contents of the wells were transferred to the wells of Reacti-Bind Glutathione Coated White 96-Well Plates (Pierce). Contents were mixed for 1 minute and incubated at room temperature for 1 hour. All of the wells were rinsed three times each with 300 μl PBS and air dried. 200 μl MicroScint 20 (Packard) was put in the wells. Plates were sealed with an adhesive cover and counted in a Top Count Microplate Scintillation counter (Packard). Activity of compounds was calculated in comparison to uninhibited control determinations in each assay.

In experiment [4] the test system is L1210 murine leukemia tumor cells. The experiment is described as follows: Cell cycle distribution of L1210 cells treated in vivo. Also on record: species or system mice. The conditions noted are these: cisplatin 6 mg/kg, compound of Example 80 20 mg/kg, 24 hours after administration.
Experiment [5] concerns HT-29 cells. The experiment is described as follows: MPM-2 assay (mitotic index) in cultured HT-29 cells. It counts as cell-based. The conditions noted are these: compound 312.5 nM. On the procedure: This assay uses […] antibody to quantitate the M-phase specific histological markers in the determination of a mitotic index (fraction of cells found in mitosis).
HT-29 cells were grown in Dulbecco's Modified Eagle Medium with high glucose, supplemented with 1 mM sodium pyruvate, 2 mM L-glutamine, 16 mM HEPES, 8 mM MOPS, and 10% fetal bovine serum. They were incubated at 37° C. in an atmosphere of 5% CO2 and 100% relative humidity.
Cells were seeded in 96-well tissue culture plates at 100 μl per well at a concentration of 40,000 per ml. The cells were allowed to attach and begin growing for 24 hours. 100 μl of adriamycin (ADR) at 2 μM (final=1 μM) was added to test cells and the cells incubated for 1 hour as above. Following the incubation, the plates were washed 2 times with growth media. The media was replaced with 100 μl fresh media and incubate a further 16 hours. Serial 2-fold dilutions of potential abrogators were added to the test wells. The rows that received nocodazole (NOC) have 2 μl NOC added at 2.5 μg/ml. The plates were then incubated an additional 6 hours. Following the incubation, the plates were centrifuged for 5 minutes at 4° C. at 200 g. One hundred microliters of Carnoy's fixative, 3 parts methanol to 1 part acetic acid, was added directly to each well and left at room temperature for 15 minutes. The media/fixative mixture was removed by suction and replaced with ice cold ethanol:acetic acid in a 20:1 ratio. The plates were stored at 4° C. until stained.
The fixed cells were stained for MPM-2 using the Upstate Biotechnology MPM-2 rhodamine detection kit per manufacturer's instructions. Briefly, the cells were washed with Dulbecco's phosphate buffered saline (DPBS) with calcium and magnesium followed by incubation with blocking buffer consisting of 8% bovine serum albumen (BSA) for a minimum of 1 hour. The cells were then washed with PBS one time and treated overnight at 4° C. with primary antibody at 5 μg/ml (100 μl per well) diluted with DPBS with 1% BSA. The cells were then washed twice for 15 minutes each with DPBS and then incubated with a 1:1000 dilution of rhodamine conjugated goat antimouse IgG in DPBS with 1% BSA for 1 hour. The secondary antibody was washed off in three 30-minute washes with DPBS. The cells were then counterstained using the Molecular Probes Mycoflour kit to stain nuclei following the instructions for the kit.
The stained cells were viewed under fluorescence microscopy using fluorescence filters suitable for detecting rhodamine and DAPI stains. Images were captured using a Spot digital camera and images analyzed using ImageQuant to quantitate total nuclei and to count MPM-2 positive cells.

The test system of experiment [6] is HT-29 cells. In words: Clonogenic assay in HT-29 cells ± Adriamycin. It counts as cell-based. Particulars: Homo sapiens, compound 250 nM. On the procedure: This cellular assay is a measure of the toxicity of the test compounds in the absence and presence of DNA damage induced by a conventional chemotherapeutic agent.
HT-29 cells were grown in Dulbecco's Modified Eagle Medium with high glucose, supplemented with 1 mM sodium pyruvate, 2 mM L-glutamine, 16 mM HEPES, 8 mM MOPS, and 10% fetal bovine serum. The cells were incubated at 37° C. in an atmosphere of 5% CO2 and 100% relative humidity.
Two or three T-75 tissue culture flasks were seeded at about 50% confluency in 30 ml media and incubated for approximately 24 hours. Adriamycin (ADR) (dissolved at 5 mM in distilled water (dH2O)) was added to the flasks to a final concentration of 1 uM or 500 nM. One flask received no ADR. The cells were allowed to incubate with the ADR for 1 hour. All flasks were then washed twice with 20 ml media allowed to incubate a further 16 hours in 30 ml media.
The stock agar (3.2% Seaplaque GTG Agarose (BioWhittaker Molecular Applications)) was suspended in distilled water and autoclaved for 20 minutes. The agar was melted prior to use in a microwave oven. […]
The cells were trypsinized using Trypsin-EDTA and their concentration adjusted to […] with media. […] The colonies were counted using a Hamamatsu video imaging system and ImageQuant software.

Read-outs that look alike come from different tables or passages of the source.

Consider `COc1ccc2[nH]c3c(c2c1)C1C(=O)NC(=O)C1C(c1ccccc1Cl)C3` (mixture of isomers) [Example 68, 4-(2-Chlorophenyl)-9-methoxy-4,5,6,10c-tetrahydropyrrolo[3,4-c]carbazole-1,3(2H,3aH)-dione], for which the IC50 in experiment [1] was determined as 480 nM; in experiment [2], 11 nM; in experiment [3], 435 nM.

In the case of `N.N.[Cl][Pt][Cl]` [Cisplatin, reference compound], in experiment [4], the “Cell cycle distribution of L1210 cells, G1” value was determined as 14.0%; the “Cell cycle distribution of L1210 cells, G2M” value is reported as 59.6%; the “Cell cycle distribution of L1210 cells, S” value is reported as 26.4%.

For the molecule `O=C1NC(=O)c2c1c(-c1ccccc1Cl)cc1c2c2cc(O)ccc2n1CCCO` [Example 80, 4-(2-Chlorophenyl)-9-hydroxy-6-(3-hydroxypropyl)pyrrolo[3,4-c]carbazole-1,3(2H,6H)-dione], in experiment [1], the IC50 was determined as 1490 nM. For the same molecule, in experiment [4], the “Cell cycle distribution of L1210 cells, G1” value stood at 60.0%; the “Cell cycle distribution of L1210 cells, G2M” value is given as 12.4%; the “Cell cycle distribution of L1210 cells, S” value was 27.6%.

Molecule `O=C1NC(=O)c2c1c(-c1c(Cl)cccc1Cl)cc1c2c2cc(O)ccc2n1CCO` [Example 94, 4-(2,6-Dichlorophenyl)-9-Hydroxy-6-(2-hydroxyethyl)pyrrolo[3,4-c]carbazole-1,3(2H,6H)-dione] returned an IC50 in experiment [1] of 1800 nM.

`CN(C)CCNC(=O)CCn1c2ccc(O)cc2c2c3c(c(-c4ccccc4)cc21)C(=O)NC3=O` [Example 214, N-[2-(Dimethylamino)ethyl]-3-(9-hydroxy-1,3-dioxo-4-phenyl-2,3-dihydropyrrolo[3,4-c]carbazol-6 (1H)-yl)propanamide] displayed a concentration for half-maximal inhibition (IC50) in experiment [1] of 171 nM.

`O=C(O)CCn1c2ccc(O)cc2c2c3c(c(-c4ccccc4Cl)cc21)C(=O)NC3=O` [Example 230, 3-(4-(2-Chlorophenyl)-9-hydroxy-1,3-dioxo-2,3-dihydropyrrolo[3,4-c]carbazol-6 (1H)-yl)propanoic acid]: the midpoint of inhibition in experiment [1], the IC50, lay at 1500 nM.

On to `CN(C)CCCOc1cc2c(cc1O)c1c3c(c(-c4ccccc4Cl)cc1n2C)C(=O)NC3=O` [Example 363, 4-(2-Chlorophenyl)-8-[3-(dimethylamino)propoxy]-9-hydroxy-6-methylpyrrolo[3,4-c]carbazole-1,3(2H,6H)-dione], for which, in experiment [5] (6 hours), the “% of cells in M phase, + Media” value is recorded as 26.4%. Besides, the “% of cells in M phase, + ADR” value in experiment [5] (after ADR 1 μM 1 hour and 16 hours) is listed as 18.9%. Moreover, the “% of cells in M phase, + ADR + NOC” value in experiment [5] (after ADR 1 μM, with nocodazole 6 hours) was 86.2%. Also, the “% of cells in M phase, + NOC” value in experiment [5] (with nocodazole 6 hours) came to 37.2%.

Consider `Cn1c2cc(OCCCN3CCCC3)c(O)cc2c2c3c(c(-c4ccccc4Cl)cc21)C(=O)NC3=O` [Example 366, 4-(2-Chlorophenyl)-9-hydroxy-6-methyl-8-[3-(1-pyrrolidinyl)propoxy]pyrrolo[3,4-c]carbazole-1,3(2H,6H)-dione], for which the activity at 0.25 µM in experiment [6] (Adriamycin pretreatment 1 hour, read-out: % of Control Colonies With DNA Damage) was determined as 2.8%; in experiment [6] (no Adriamycin, read-out: % of Control Colonies With No DNA Damage), 38%.

As to `O=C1NC(=O)c2c1c(-c1ccccc1)cc1oc3ccc(O)cc3c21` [Example 369, 9-Hydroxy-4-phenyl-1H-[1] benzofuro[3,2-e]isoindole-1,3(2H)-dione], the IC50 in experiment [1] is above 4000 nM.
